Source: paper PMC4965013, “Open Source Drug Discovery with the Malaria Box Compound Collection for Neglected Diseases and Beyond” (PLoS Pathogens, 2016)
Where two headings read alike, the source gives them in different places.

Assays:
P. falciparum = test: EC50 listed in S2 Table Metabolomics (used to set the concentration tested); assay type: cell-based; details: Plasmodium falciparum; EC50 used for Factor_XEC50 in metabolomics; read-out: EC50_nM
P. falciparum 3D7 = test: [3H]-hypoxanthine growth inhibition, modified HCO3- or O2; assay type: cell-based; details: for IC50: Plasmodium falciparum
[1] = test system: P. falciparum 3D7 trophozoites; test: Metabolomic fingerprint profiling LC-MS; assay type: cell-based, Plasmodium falciparum; set-up: UDP-D-glucose / ADP-D-glucose: unit not given here; details: for Acetyllysine / N-acetyl-L-ornithine / N-carbamoyl-L-aspartate / NADPH / dAMP / dCMP / dTDP / dTMP / dTTP / dihydroorotate / orotate / DLH / DLS/SDL/SID / PD / PEE / PVNF / 3-phosphoglycerate / ADP-D-glucose / ATP / CDP / D-sedoheptulose-1/7-phosphate / FAD / GMP / NAD+ / NADP+ / Octoluse Bisphosphate / Pyroglutamic acid / UDP-D-glucose / UDP-D-glucuronate / UDP-N-acetyl-glucosamine / UDP / UMP / UTP / a-ketoglutarate / citrate/isocitrate / cytidine / dATP / dGMP/AMP / fumarate / glucose-1/6-phosphate / glycerate / guanine / guanosine / hypoxanthine / indole / inosine / nicotinate / ornithine / phosphoenolpyruvate / pyruvate / ribose-phosphate / sarcosine/alanine / sn-glycerol-3-phosphate / succinate/methylmalonic acid / uridine / xanthosine: S2 Table Metabolomics; for Acetyllysine: metabolite Acetyllysine; for N-acetyl-L-ornithine: metabolite N-acetyl-L-ornithine; for N-carbamoyl-L-aspartate: metabolite N-carbamoyl-L-aspartate; for NADPH: metabolite NADPH; for dAMP: metabolite dAMP; for dCMP: metabolite dCMP; for dTDP: metabolite dTDP; for dTMP: metabolite dTMP; for dTTP: metabolite dTTP; for dihydroorotate: metabolite dihydroorotate; for orotate: metabolite orotate; for DLH: peptide DLH; for DLS/SDL/SID: peptide DLS/SDL/SID; for PD: peptide PD; for PEE: peptide PEE; for PVNF: peptide PVNF; for 3-phosphoglycerate: metabolite 3-phosphoglycerate; for ADP-D-glucose: metabolite ADP-D-glucose; for ATP: metabolite ATP; for CDP: metabolite CDP; for CDP / D-sedoheptulose-1/7-phosphate / GMP / Octoluse Bisphosphate / UDP / UMP / UTP / citrate/isocitrate / dGMP/AMP / fumarate / glucose-1/6-phosphate / glycerate / guanine / guanosine / inosine / pyruvate / sarcosine/alanine / succinate/methylmalonic acid / uridine / xanthosine: change in metabolite level after compound treatment; for D-sedoheptulose-1/7-phosphate: metabolite D-sedoheptulose-1/7-phosphate; for FAD: metabolite FAD; for GMP: metabolite GMP; for NAD+: metabolite NAD+; for NADP+: metabolite NADP+; for Octoluse Bisphosphate: metabolite Octoluse Bisphosphate; for Pyroglutamic acid: metabolite Pyroglutamic acid; for UDP-D-glucose: metabolite UDP-D-glucose; for UDP-D-glucuronate: metabolite UDP-D-glucuronate; for UDP-N-acetyl-glucosamine: metabolite UDP-N-acetyl-glucosamine; for UDP: metabolite UDP; for UMP: metabolite UMP; for UTP: metabolite UTP; for a-ketoglutarate: metabolite a-ketoglutarate; for citrate/isocitrate: metabolite citrate/isocitrate; for cytidine: metabolite cytidine; for dATP: metabolite dATP; for dGMP/AMP: metabolite dGMP/AMP; for fumarate: metabolite fumarate; for glucose-1/6-phosphate: metabolite glucose-1/6-phosphate; for glycerate: metabolite glycerate; for guanine: metabolite guanine; for guanosine: metabolite guanosine; for hypoxanthine: metabolite hypoxanthine; for indole: metabolite indole; for inosine: metabolite inosine; for 2_3-Diphosphoglyceric acid / 4-phosphopantothenate / 6-phospho-D-gluconate / FMN / IMP / Pyrophosphate / Sedoheptoluse bisphosphate / cyclic-AMP / glutathione disulfide / lactate / myo-inositol: metabolite level change after treatment; for nicotinate: metabolite nicotinate; for ornithine: metabolite ornithine; for phosphoenolpyruvate: metabolite phosphoenolpyruvate; for pyruvate: metabolite pyruvate; for ribose-phosphate: metabolite ribose-phosphate; for sarcosine/alanine: metabolite sarcosine/alanine; for sn-glycerol-3-phosphate: metabolite sn-glycerol-3-phosphate; for succinate/methylmalonic acid: metabolite succinate/methylmalonic acid; for uridine: metabolite uridine; for xanthosine: metabolite xanthosine
[2] = 3D7, read-out: P. falciparum 3D7 IC50 1% O2, 1% O2 hypoxia
[3] = 3D7, read-out: P. falciparum 3D7 IC50 5% O2

Oc1ccccc1CNCC12CC3CC(CC(C3)C1)C2 [MMV020788]
EC50 (P. falciparum): 22.6 nM
fold change (IC50normal/ IC50hypoxia) (P. falciparum 3D7): 2.2
IC50 (P. falciparum 3D7; [2]): 63 nM
IC50 (P. falciparum 3D7; [3]): 136 nM
Acetyllysine [1]: -2.885
N-acetyl-L-ornithine [1]: -2.954
N-carbamoyl-L-aspartate [1]: -1.526
NADPH [1]: 0.03625
dAMP [1]: 0.309
dCMP [1]: -0.3685
dTDP [1]: -0.06212
dTMP [1]: -0.1581
dTTP [1]: -0.254
dihydroorotate [1]: -1.002
orotate [1]: -1.435
DLH [1]: -2.982
DLS/SDL/SID [1]: -2.352
PD [1]: -3.15
PEE [1]: -2.856
PVNF [1]: -2.845
3-phosphoglycerate [1]: 0.739
ADP-D-glucose [1]: -0.1615
ATP [1]: -0.008574
CDP [1]: 0.1968
D-sedoheptulose-1/7-phosphate [1]: -0.6783
FAD [1]: -0.02526
GMP [1]: -0.06975
NAD+ [1]: -0.1588
NADP+ [1]: -0.008021
Octoluse Bisphosphate [1]: -0.4633
Pyroglutamic acid [1]: -0.07383
UDP-D-glucose [1]: 0.01367
UDP-D-glucuronate [1]: -0.09612
UDP-N-acetyl-glucosamine [1]: -0.01836
UDP [1]: -0.3321
UMP [1]: -0.241
UTP [1]: -0.2582
a-ketoglutarate [1]: -0.5092
citrate/isocitrate [1]: -0.2786
cytidine [1]: 0.02539
dATP [1]: -0.1887
dGMP/AMP [1]: 0.3187
fumarate [1]: -0.7339
glucose-1/6-phosphate [1]: -0.008522
glycerate [1]: -0.4973
guanine [1]: -0.3533
guanosine [1]: -0.149
hypoxanthine [1]: -0.5956
indole [1]: -0.4443
inosine [1]: -0.3499
2_3-Diphosphoglyceric acid [1]: 0.3339
4-phosphopantothenate [1]: -0.308
6-phospho-D-gluconate [1]: 0.001521
FMN [1]: -0.2331
IMP [1]: -0.5843
Pyrophosphate [1]: 0.1188
Sedoheptoluse bisphosphate [1]: -0.1032
cyclic-AMP [1]: -0.6828
glutathione disulfide [1]: -0.3605
lactate [1]: -0.4043
myo-inositol [1]: -0.5298
nicotinate [1]: -0.1476
ornithine [1]: -0.2765
phosphoenolpyruvate [1]: 0.5824
pyruvate [1]: 0.6752
ribose-phosphate [1]: 0.658
sarcosine/alanine [1]: -1.087
sn-glycerol-3-phosphate [1]: 0.6534
succinate/methylmalonic acid [1]: 0.06183
uridine [1]: -0.2427
xanthosine [1]: -0.4659

Cc1cc(Nc2ccc(Cl)cc2)n2nc(C(F)(F)F)nc2n1 [MMV011256]
EC50 (P. falciparum): 212 nM
fold change (IC50normal/ IC50hypoxia) (P. falciparum 3D7): 5.0
IC50 (P. falciparum 3D7; [2]): 70 nM
IC50 (P. falciparum 3D7; [3]): 349 nM
Acetyllysine [1]: -0.5963
N-acetyl-L-ornithine [1]: -0.507
N-carbamoyl-L-aspartate [1]: 4.681
NADPH [1]: 1.178
dAMP [1]: -1.417
dCMP [1]: 0.2248
dTDP [1]: -0.9712
dTMP [1]: -0.998
dTTP [1]: -0.8663
dihydroorotate [1]: 5.399
orotate [1]: -0.2345
DLH [1]: -0.3185
DLS/SDL/SID [1]: -0.4128
PD [1]: 0.2516
PEE [1]: -0.4695
PVNF [1]: -1.475
3-phosphoglycerate [1]: 0.08815
ADP-D-glucose [1]: 0.5309
ATP [1]: -0.05125
CDP [1]: -0.6896
D-sedoheptulose-1/7-phosphate [1]: 0.1853
FAD [1]: 0.084
GMP [1]: 0.2583
NAD+ [1]: 0.00935
NADP+ [1]: 0.5726
Octoluse Bisphosphate [1]: 0.02106
Pyroglutamic acid [1]: -0.3979
UDP-D-glucose [1]: 0.01111
UDP-D-glucuronate [1]: -0.02444
UDP-N-acetyl-glucosamine [1]: -0.1642
UDP [1]: -0.997
UMP [1]: -0.7924
UTP [1]: -1.308
a-ketoglutarate [1]: -0.5125
citrate/isocitrate [1]: -0.4219
cytidine [1]: -0.1943
dATP [1]: 0.3626
dGMP/AMP [1]: 0.01292
fumarate [1]: -0.2283
glucose-1/6-phosphate [1]: -0.259
glycerate [1]: -0.6701
guanine [1]: 0.06677
guanosine [1]: 0.3651
hypoxanthine [1]: -0.6973
indole [1]: -0.3061
inosine [1]: -0.4425
2_3-Diphosphoglyceric acid [1]: 0.2246
4-phosphopantothenate [1]: -0.3914
6-phospho-D-gluconate [1]: 0.1976
FMN [1]: -0.1065
IMP [1]: 0.1475
Pyrophosphate [1]: 0.2465
Sedoheptoluse bisphosphate [1]: 0.08943
cyclic-AMP [1]: -0.1063
glutathione disulfide [1]: 0.192
lactate [1]: -0.653
myo-inositol [1]: -1.111
nicotinate [1]: -0.2929
ornithine [1]: 0.09761
phosphoenolpyruvate [1]: 0.0459
pyruvate [1]: -0.6078
ribose-phosphate [1]: -0.1179
sarcosine/alanine [1]: 0.2817
sn-glycerol-3-phosphate [1]: -0.0008256
succinate/methylmalonic acid [1]: 0.03166
uridine [1]: -0.902
xanthosine [1]: 0.002012
